Reference: US11053205B2, “Phenazine derivatives as antimicrobial agents” (University of Florida Research Foundation, Incorporated, priority 2017, dated 2021)
Values after ≈ are worked out from the molar mass of the structure shown. Like-named read-outs stand apart in the source and are kept apart here. Marks after values point to notes of the source that are not given here.

Experiments:
VRE 700221 = experiment: MIC, broth microdilution (CLSI); settings: for MIC: Enterococcus, VRE
MRSE 35984 = experiment: MIC, broth microdilution (CLSI); settings: 16 to 18 hours at 37° C.
MRSE 35984 biofilms [1] = experiment: Live/Dead staining of biofilms; format: cell-based, Staphylococcus epidermidis; settings: 0.1, 5, and 10 μM, 24 hours
Description: (§1) A mid-log culture of MRSE 35894 was diluted 1:1,000-fold and 500 μL was transferred to each compartment of a 4 compartment CELLview dish (Greiner Bio-One 627871). The dish was then incubated for 24 hours at 37° C. After this time, the cultures were removed and the plate was washed with 0.9% saline. The dish was then treated with the compounds in fresh media at various concentrations. DMSO was used as the negative control in this assay. The dish was incubated with the compound for 24 hours at 37° C. After this time, the cultures were removed and the dish was washed with 0.9% saline for 2 minutes. Saline was then removed and 500 μL of the stain (Live/Dead BacLight Viability Kit, Invitrogen) were added for 15 minutes and left in the dark. After this time, the stain was removed and the dish was washed twice with 0.9% saline. Then the dish was fixed with 500 μL 4% paraformaldehyde in PBS for 30 minutes. Images of remaining MRSE biofilms were then taken with a fluorescence microscope. All data were analyzed using Image J software from three independent experiments.
Following biofilm eradication investigations in CBD assays, lead HP 61A was tested against biofilms of MRSE 35984 in live/dead staining experiments (FIG. 30B). After a 24-hour biofilm establishment, HP 61A was added at 0.1, 5, and 10 μM then left to incubate against MRSE 35984 biofilms for an additional 24 hours at 37° C.

MRSA BAA-1707 biofilms = experiment: Calgary Biofilm Device (CBD) assay, MBC/MBEC
MRSA BAA-1707 = experiment: MIC, broth microdilution (CLSI); settings: 16 to 18 hours at 37° C.; 0.10 = lowest concentration tested
[2] = test system: M. tuberculosis H37Ra (ATCC 25177); experiment: MIC assay for Mycobacterium tuberculosis; format: cell-based; settings: Mycobacterium tuberculosis, 168 h; seven days at 37° C.; read-out: MtB H37Ra MIC
Description: The culture was then diluted with fresh medium until an OD600 of 0.01 was reached. […] The final DMSO concentration was maintained at 0.5%. […] Three rows were reserved for each compound. […] OD600 absorbance was recorded using SPECTRAMAX M5 (Molecular Devices). Data obtained from three independent experiments were analyzed using Excel.
The culture was then diluted with fresh medium until an OD600 of 0.01 was reached. […] The final DMSO concentration was maintained at 0.5%. […] Three rows were reserved for each compound. […] OD600 absorbance was recorded using SpectraMax M5 (Molecular Devices). Data obtained from three independent experiments were analyzed using Excel.

human red blood cells [3] = settings: human, 1 h, 200 μM, pH 7.2
MRSA-1 = experiment: MIC, broth microdilution (CLSI); settings: Staphylococcus aureus, MRSA, read-out: MRSA-1 MIC
UV-Vis metal(II) binding = format: physicochemical; settings: kinetics of UV-Vis experiments
Description: Spectral scanning was performed from 200 to 800 nm in 2 nm increments.

MRSA-1707 biofilms = experiment: Live/Dead staining of biofilms; format: cell-based, Staphylococcus aureus; settings: 0.1, 1 and 5 μM, 24 hours
Description: as §1, with “To support the CBD assay findings, LIVE/DEAD experiments were performed with potent Compound 27 (FIG. 7). A mid-log” for “A mid-log”, “culture of MRSA-2 was diluted” for “culture of MRSE 35894 was diluted”, “4 compartment […] dish (Greiner” for “4 compartment CELLview dish (Greiner”, “stain was removed, and the” for “stain was removed and the”, “of remaining MRSA-2 biofilms were” for “of remaining MRSE biofilms were”, “Image J software.” for “Image J software from three independent experiments.”
HP 1-17 was tested against MRSA-1707 biofilms in live/dead staining experiments. […] After this time, images of the treated and untreated MRSA-1707 biofilms were obtained using fluorescence microscopy (FIG. 20).

[4] = test system: MRSA, MRSE and VRE biofilms; experiment: CBD assays against MRSA, MRSE, and VRE biofilms (all strains); settings: strains not given
human red blood cells [5] = experiment: Hemolysis assay with red blood cells; settings: 1 hour at 37° C.
MRSA-2 biofilms = experiment: Calgary Biofilm Device (CBD) assay, MBC/MBEC
MRSA BAA-44 biofilms = experiment: Calgary Biofilm Device (CBD) assay, MBC/MBEC; settings: biofilm eradication
VRE 700221 biofilms = experiment: Calgary Biofilm Device (CBD) assay, MBC/MBEC
S. epi 12228 = experiment: MIC, broth microdilution (CLSI); settings: Staphylococcus epidermidis, 12228, read-out: S. epi 12228 MIC
MRSE 35984 biofilms [6] = experiment: Calgary Biofilm Device (CBD) assay, MBC/MBEC; settings: Staphylococcus epidermidis, MRSE, read-out: MRSE 35984 MBC

Oc1c(Br)cc(Br)c2nc3cc(Cl)ccc3nc12 [61A]
VRE 700221 MIC (VRE 700221; 16 to 18 hours at 37° C.): 0.39 µM
MRSE 35984 MIC (MRSE 35984): 0.1 µM
IC50 (HeLa cells): > 100 µM
biofilm eradication and clearance (live/dead staining) (MRSE 35984 biofilms [1]): highly potent eradication and clearance of MRSE 35984 biofilms
MRSA BAA-1707 MBEC (MRSA BAA-1707 biofilms; CBD, biofilm eradication): 4.69 µM
MRSA BAA-1707 MIC (MRSA BAA-1707): 0.038 µM

Cc1cccc2nc3c(O)c(Br)cc(Br)c3nc12 [HP 1-17]
MIC [2]: 25 µM (≈ 9.2 µg/mL)
Hemolysis at 200 μM (human red blood cells [3]): 6.7%
MIC (MRSA-1): 0.1 µM (≈ 0.0368 µg/mL)
rate of copper(II) chelation (UV-Vis metal(II) binding): faster rate than HP 1
biofilm eradication and clearance (live/dead staining) (MRSA-1707 biofilms): potent biofilm eradication and clearance response

CCc1cccc2nc3c(O)c(Br)cc(Br)c3nc12 [HP 1-18]
MIC (VRE 700221; read-out: VRE 700221 MIC, 16 to 18 hours at 37° C.): 0.15 to 1.56 µM (≈ 0.0573 to 0.596 µg/mL)
MRSE 35984 MIC (MRSE 35984): 0.10^c μM
MBEC [4]: 0.59 to 2.35 µM
MIC [2]: 25 µM (≈ 9.55 µg/mL)
MRSA BAA-1707 MIC (MRSA BAA-1707): 0.10^c μM
Hemolysis at 200 μM (human red blood cells [3]): 1.7%

CN[C@H](CC(C)C)C(=O)N[C@H]1C(=O)N[C@@H](CC(N)=O)C(=O)N[C@H]2C(=O)N[C@H]3C(=O)N[C@H](C(=O)N[C@H](C(=O)O)c4cc(O)cc(O)c4-c4cc3ccc4O)[C@H](O)c3ccc(c(Cl)c3)Oc3cc2cc(c3O[C@@H]2O[C@H](CO)[C@@H](O)[C@H](O)[C@H]2O[C@H]2C[C@](C)(N)[C@H](O)[C@H](C)O2)Oc2ccc(cc2Cl)[C@H]1O [vancomycin, reference compound]
Hemolysis at 200 μM (human red blood cells [5]): ≤1%
MIC (VRE 700221; read-out: VRE 700221 MIC): > 100 µM
MRSA-2 MBEC (MRSA-2 biofilms; CBD, biofilm eradication): > 2000 µM
MBC (MRSA-2 biofilms; Staphylococcus aureus, MRSA, read-out: MRSA-2 MBC): 3 µM (≈ 4.35 µg/mL)
MBC (MRSA BAA-1707 biofilms; Staphylococcus aureus, read-out: MRSA BAA-1707 MBC): 3.9 µM (≈ 5.65 µg/mL)
biofilm eradication activities against MRSA biofilms (MRSA BAA-1707 biofilms; at 2,000 μM (highest concentration tested)): no biofilm eradication activities
MRSA BAA-44 MBEC (MRSA BAA-44 biofilms): > 2000 µM
VRE 700221 MBEC (VRE 700221 biofilms; CBD, biofilm eradication): 150 µM
MBC (VRE 700221 biofilms; Enterococcus, VRE, read-out: VRE 700221 MBC): > 200 µM
MIC (S. epi 12228): 1.17 µM (≈ 1.7 µg/mL)
MBC (MRSE 35984 biofilms [6]): 3 µM (≈ 4.35 µg/mL)
